Reference: US20260224714A1, “CYCLING LYSOSOMAL TARGETING ANTIBODY CONJUGATES” (Lycia Therapeutics, Inc., priority 2023, published 2026)

Experiments:
Format in all cases: cell-based
[1] = tested on: Alexa Fluor647 labelled human IgE; assay: Uptake assay: internalization of Alexa Fluor 647 labelled IgE in wild type HepG2 cells (Example 6); conditions: equimolar conjugate and AF647 IgE, 2 hours, median cellular AF647 intensity by flow cytometry, normalized to unconjugated parent protein
Procedure: (§1) The following experiments were performed with HepG2 hepatocellular carcinoma cells, grown in Eagle's Minimal Essential Media (EMEM) supplemented with 10% FBS and penicillin/streptomycin.
(§2) HepG2 cells (25,000) were plated in 96-well plates 48 hours before the experiment was performed. On the day of the experiment, indicated the conjugate was mixed with an equimolar stock of Alexa Fluor647 labelled human IgE (Enzo Life Sciences, BPD-DIA-HE 1) in fresh EMEM as a 600 nM stock. The precomplexed conjugate:IgE mixture was incubated at room temperature for 30 minutes. During the precomplexing step, media from HepG2 was removed, and 40 ul of EMEM with 1/100 Fc Receptor Blocking Solution (Biolegend Human TruStain FcX, 422302) was added. Cells incubated in the receptor blocking solution for 10 minutes while making serial dilutions (1:3) of conjugate:IgE stock solution in EMEM. 40 ul of the conjugate:IgE mixture in EMEM was then added to cells (six dilutions, with final concentrations ranging from 300 nM to 1.23 nM) for 2 hours before washing with DPBS and detaching with 0.25% Trypsin/EDTA. Cells were pelleted in 96-well conical bottom plates, washed once with FACS Buffer with BSA (Rockland Immunochemicals), and resuspended in FACS Buffer with BSA. Uptake of fluorescently labelled IgE was measured by analyzing median cellular AF647 intensity by flow cytometry.
(§3) Cells were incubated with equimolar ratio of conjugate and AF647 IgE at indicated concentrations, with data normalized to unconjugated parent protein (Oma S35HWY57H-LC).

[2] = tested on: HepG2 cells; assay: Externalization of conjugates from a cell following internalization (cycling), high-throughput format (Example 11); conditions: 50 nM conjugate 1 hour, stringent washes, Alexa Fluor 647-labelled a-human IgG 1 hour, FACS, normalized to unconjugated parent protein, average of two replicate wells
Procedure: as §1
The method was also adapted to a high-throughput format. In this assay, 25,000 HepG2 cells were plated in 96-well plates 48 hours before performing the experiment. The day of the experiment, cells were incubated with conjugate at indicated concentrations for 1 hour. Cells were then placed on ice to prevent trafficking/recycling during wash steps, and washed once with DPBS, once with sodium acetate buffer (20 mM, 150 mM NaCl, pH 5.2), once with Earle's Balanced Salt Solution (EBSS) adjusted to pH 2.5, and once again with DPBS, to remove conjugate from media and cell surface. Afterwards, 100 ul of prewarmed (to 37° C.) EMEM with 1 μg/ml of human a-IgG antibody conjugated to Alexa Fluor647 fluorophores was added to cells for 1 hour before washing with DPBS and detaching with 0.25% Trypsin/EDTA. Cells were pelleted in 96-well conical bottom plates, washed once with FACS Buffer with BSA (Rockland Immunochemicals), resuspended FACS Buffer with BSA and median AF647 intensity was analyzed by flow cytometry. The amount of conjugate capable of cycling to the cell surface (being externalized from the cell) and binding to the Alexa Fluor647 labelled α-IgG was measured by analyzing median cellular 647 fluorescence intensity by flow cytometry. […]. Reported values are the average of the values of two replicate wells.

[3] = tested on: recombinant IgE; assay: Degradation of super-stoichiometric levels of target in HepG2 cells (Example 13, Table 31); conditions: 1 nM conjugate and 25 nM IgE for three days, (A-B)/C IgE depleted relative to conjugate, average of two replicate wells
Procedure: as §1
For evaluation of compounds in a high throughput format, 25,000 HepG2 cells were plated in a 96-well plate. The following day, 50 ul of 1 nM conjugate and 25 nM recombinant IgE in EMEM were added to the cells. 50 ul of the initial stock of conjugate:IgE was saved to quantify for an initial time point. Three days later, the media was collected from cells, and both initial and 72 hour time points were quantified for IgE concentration using the MSD assay.
HepG2 cells were incubated in media containing 1 nM conjugate and 25 nM IgE for three days. Concentrations of IgE at beginning and end of experiment were quantified by ELISA-based assay. Molar equivalents of IgE depleted relative to conjugate added are shown, calculated as (A-B)/C, where A is the initial concentration of IgE, B is the concentration of IgE at day three, and C is the concentration of conjugate. Reported values are the average of the values of two replicate wells.

[4] = tested on: human IgE; assay: Degradation of initial and subsequent dose of target in HepG2 cells (Example 12, Table 30); conditions: normalized to unconjugated; for Normalized Fluorescence Post Wash Median Green: after wash, probe-conjugated IgE added for 4 hours, subsequent dose of target; for Normalized Fluorescence Precomplex Median Deep Red: precomplexed equimolar conjugate:IgE (cathepsin-cleavable quenched fluorescent probe) added for 2 hours, initial dose of target
Procedure: as §1
HepG2 cells (25,000) were plated in 96-well plates 48 hours before performing the experiment. On the day of the experiment, indicated conjugate was diluted in fresh EMEM as a 2× stock, and mixed with an equimolar stock of human IgE (Enzo Life Sciences, BPD-DIA-HE 1) conjugated to a cathepsin-cleavable quenched fluorescent probe. The precomplexed conjugate:IgE mixture was incubated at 37 degrees Celsius for 30 minutes. Media from HepG2 was removed, and conjugate:IgE mixture in EMEM was added to cells for 2 hours. Cells were then placed on ice to prevent trafficking/recycling during wash steps, and washed once with DPBS, once with sodium acetate buffer (20 mM, 150 mM NaCl, pH 5.2), once with Earle's Balanced Salt Solution (EBSS) adjusted to pH 2.5, and once again with DPBS, to remove conjugate from media and cell surface. Afterwards, 100 ul of prewarmed (to 37 degrees Celsius) EMEM with cathepsin-cleavable quenched fluorescent probe-conjugated IgE was added to cells for 4 hours before washing with DPBS and detaching with 0.25% Trypsin/EDTA. Cells were pelleted in 96-well conical bottom plates, washed once with FACS Buffer with BSA (Rockland Immunochemicals), resuspended FACS Buffer with BSA and median 488 and 647 intensity was analyzed by flow cytometry. Delivery of labelled IgE to the lysosome and subsequent cleavage of initial precomplexed IgE was measured by analyzing median cellular 647 intensity, while cleavage of the post wash addition of IgE, which should only be degraded by recycling conjugates which released the first round of precomplexed IgE, was analyzed by median cellular 488 intensity. HepG2 cells were treated with human IgE (Enzo Life Sciences, BPD-DIA-HE1) conjugated to a cathepsin-cleavable quenched deep red (647) fluorescent probe precomplexed to conjugate fortwo hours, then washed, and fresh media with IgE conjugated to a green (488) cathepsin-cleavable fluorescent probe was then added without conjugate. […] Fluorescence values were measured by FACS and normalized to unconjugated parent protein. Reported values are the average of the values of two replicate wells.

[5] = tested on: LysoLight-labelled human IgE; assay: Lysosomal degradation of LysoLight-labelled IgE in HepG2 cells, live cell imaging (Example 7); conditions: equimolar conjugate:LysoLight IgE, area under the curve of deep red fluorescence over three days, normalized to unconjugated parent protein
Procedure: as §1
HepG2 cells (15,000) were plated in 96-well plates 72 hours before performing the experiment. On the day of the experiment, indicated the conjugate was diluted in fresh EMEM and mixed with an equimolar stock of LysoLight-labelled human IgE (Enzo Life Sciences, BPD-DIA-HE1), at 200 nM of each compound. The precomplexed conjugate:IgE mixture was incubated at room temperature for 30 minutes. During the precomplexing step, media from HepG2 was removed, and 40 ul of EMEM with 1/100 Fc Receptor Blocking Solution (Biolegend Human TruStain FcX, 422302) was added. Cells incubated in the receptor blocking solution for 10 minutes while making serial dilutions (1:3) of conjugate:IgE stock solution in EMEM. 40 ul of the conjugate:IgE mixture in EMEM was then added to cells (five dilutions, with final concentrations ranging from 100 nM to 1.23 nM). Cells were placed in an IncuCyte Live-Cell Analysis System (Sartorius) for long term live cell imaging analysis (10× magnification, 3 images per well). One hour after addition of compound, image acquisition to measure red fluorescence from the LysoLight probe was started, with further Images collected every hour for 72 hours. Fluorescence of the LysoLight probe only occurs when cleaved by lysosomal cathepsin proteases, confirming lysosomal delivery and degradation of target. After 72 hours, mean red fluorescence was measured for each time point, and the area under the curve of fluorescence overtime was used to measure total degradation over the 3-day time period.

[6] = tested on: Alexa Fluor647 labelled human IgE; assay: Uptake assay: internalization of Alexa Fluor 647 labelled IgE in ASGPR1/2 KO HepG2 cells (Example 6); conditions: equimolar conjugate and AF647 IgE, normalized to unconjugated parent protein
Procedure: as §1, §2, §3

O=C(CCOCCOCCOCCNS(=O)(=O)c1ccc(N2C(=O)C=CC2=O)cc1)NC(CCCNC(=O)NCCOCCOCCCc1cncc(N[C@H]2CO[C@H](CO)[C@H](O)[C@@H]2O)n1)(CCCNC(=O)NCCOCCOCCCc1cncc(N[C@H]2CO[C@H](CO)[C@H](O)[C@@H]2O)n1)CCCNC(=O)NCCOCCOCCCc1cncc(N[C@H]2CO[C@H](CO)[C@H](O)[C@@H]2O)n1 [Compound 2303]
Normalized Fluorescence 3.7 nM WT [1]: 70.6 | Normalized Fluorescence 100 nM WT [1]: 232.7 | Normalized Fluorescence [2]: 52.7 | Average Degradation (Molar equivalents) [3]: 3.6 Molar equivalents | Normalized Fluorescence Post Wash Median Green [4]: 3.6 | Normalized Fluorescence Precomplex Median Deep Red [4]: 3.4 | Normalized Fluorescence 3.7 nM [5]: 10.2 | Normalized Fluorescence 100 nM [5]: 3.7 | Normalized Fluorescence 100 nM ASGPR KO [6]: 1.1

CC(CCCNC(=O)NCCOCCOCCOCC(F)(F)c1cncc(N[C@H]2CO[C@H](CO)[C@H](O)[C@@H]2O)n1)(CCCNC(=O)NCCOCCOCCOCC(F)(F)c1cncc(N[C@H]2CO[C@H](CO)[C@H](O)[C@@H]2O)n1)NC(=O)CCOCCOCCOCCNS(=O)(=O)c1ccc(N2C(=O)C=CC2=O)cc1 [Compound 2304]
Normalized Fluorescence 3.7 nM WT [1]: 150.3 | Normalized Fluorescence 100 nM WT [1]: 292.5 | Normalized Fluorescence [2]: 82.2 | Average Degradation (Molar equivalents) [3]: 8.8 Molar equivalents | Normalized Fluorescence Post Wash Median Green [4]: 4.1 | Normalized Fluorescence Precomplex Median Deep Red [4]: 3.9 | Normalized Fluorescence 3.7 nM [5]: 12.7 | Normalized Fluorescence 100 nM [5]: 4.0 | Normalized Fluorescence 100 nM ASGPR KO [6]: 1.0

O=C(CCOCCOCCOCCNS(=O)(=O)c1ccc(N2C(=O)C=CC2=O)cc1)NC(CCCNC(=O)NCCOCCOCCOC[C@@H]1CN([C@H]2CO[C@H](CO)[C@H](O)[C@@H]2O)C(=O)O1)(CCCNC(=O)NCCOCCOCCOC[C@@H]1CN([C@H]2CO[C@H](CO)[C@H](O)[C@@H]2O)C(=O)O1)CCCNC(=O)NCCOCCOCCOC[C@@H]1CN([C@H]2CO[C@H](CO)[C@H](O)[C@@H]2O)C(=O)O1 [Compound 2306]
Normalized Fluorescence 3.7 nM WT [1]: 31.0 | Normalized Fluorescence 100 nM WT [1]: 164.6 | Normalized Fluorescence [2]: 23.1 | Average Degradation (Molar equivalents) [3]: 1.8 Molar equivalents | Normalized Fluorescence Post Wash Median Green [4]: 2.4 | Normalized Fluorescence Precomplex Median Deep Red [4]: 2.5 | Normalized Fluorescence 3.7 nM [5]: 5.6 | Normalized Fluorescence 100 nM [5]: 1.8 | Normalized Fluorescence 100 nM ASGPR KO [6]: 1.1

CC(=O)N[C@@H]1[C@@H](O)[C@@H](O)[C@@H](CO)O[C@@H]1CCCOCCOCCNC(=O)NCCCC(CCCNC(=O)NCCOCCOCCC[C@H]1O[C@H](CO)[C@H](O)[C@H](O)[C@H]1NC(C)=O)(CCCNC(=O)NCCOCCOCCC[C@H]1O[C@H](CO)[C@H](O)[C@H](O)[C@H]1NC(C)=O)NC(=O)COCCOCCOCCOCCN(C(=O)CBr)C1CCOCC1 [Compound 2307, N-[4-[2-[2-[3-[(2R,3R,4R,5R,6R)-3-acetamido-4,5-dihydroxy-6-(hydroxymethyl)tetrahydropyran-2-yl]propoxy]ethoxy]ethylcarbamoylamino]-1,1-bis[3-[2-[2-[3-[(2R,3R,4R,5R,6R)-3-acetamido-4,5-dihydroxy-6-(hydroxymethyl)tetrahydropyran-2-yl]propoxy]ethoxy]ethylcarbamoylamino]propyl]butyl]-2-[2-[2-[2-[2-[(2-bromoacetyl)-tetrahydropyran-4-yl-amino]ethoxy]ethoxy]ethoxy]ethoxy]acetamide]
Normalized Fluorescence 3.7 nM WT [1]: 81.6 | Normalized Fluorescence 100 nM WT [1]: 253.2 | Normalized Fluorescence [2]: 42.9 | Average Degradation (Molar equivalents) [3]: 5.6 Molar equivalents | Normalized Fluorescence Post Wash Median Green [4]: 3.5 | Normalized Fluorescence Precomplex Median Deep Red [4]: 3.7 | Normalized Fluorescence 3.7 nM [5]: 7.9 | Normalized Fluorescence 100 nM [5]: 4.1 | Normalized Fluorescence 100 nM ASGPR KO [6]: 1.2

CC(=O)N[C@@H]1[C@@H](O)[C@@H](O)[C@@H](CO)O[C@@H]1CCCOCCOCCNC(=O)NCCCC(CCCNC(=O)NCCOCCOCCC[C@H]1O[C@H](CO)[C@H](O)[C@H](O)[C@H]1NC(C)=O)(CCCNC(=O)NCCOCCOCCC[C@H]1O[C@H](CO)[C@H](O)[C@H](O)[C@H]1NC(C)=O)NC(=O)CBr [Compound 2308]
Normalized Fluorescence 3.7 nM WT [1]: 55.1 | Normalized Fluorescence 100 nM WT [1]: 261.4 | Normalized Fluorescence [2]: 31.6 | Average Degradation (Molar equivalents) [3]: 2.5 Molar equivalents | Normalized Fluorescence Post Wash Median Green [4]: 2.8 | Normalized Fluorescence Precomplex Median Deep Red [4]: 3.3 | Normalized Fluorescence 3.7 nM [5]: 6.7 | Normalized Fluorescence 100 nM [5]: 2.3 | Normalized Fluorescence 100 nM ASGPR KO [6]: 1.1
